Measurements reported in US20080220103A1, “METHOD FOR TREATING/CONTROLLING/KILLING FUNGI AND BACTERIA ON LIVING ANIMALS” (priority 2005, published 2008).
In brackets after ≈: the same amount, converted by molar mass. Several values for one entry are separate records, joined by “and”; a condition that tells them apart may be missing. Equal values may be shown once. Read-outs that look alike come from different tables or passages of the source.

Tests used:
[1] = tested on: T. mentagrophytes; test: MIC, modified CLSI M38A broth dilution; type: cell-based, Trichophyton mentagrophytes
Method: (§1) Minimum Inhibitory Concentration (MIC): Minimum inhibitory concentrations of synthetic and semisynthetic and natural products against dermatophytes were determined using a modification of the Clinical Laboratory Standards Institute (CLSI, formerly National Committee of Clinical Laboratory Standards, NCCLS) M38A standard method for dermatophytes, while MIC of these agents against Candida species were determined using the CLSI M27-A2 methodology. The method used to determine the MIC against bacteria was based on the CLSI document M7-A7.
(§2) For dermatophytes, serial dilutions of terbinafine, tolnaftate were prepared in a range of 0.004-2 μg/ml, while for miconazole concentrations ranged between 0.015-8 μg/ml. Finally, for essential oils, the concentrations tested were between 0.03-16 μg/ml. The only exception was tea tree oil where dilutions were prepared in a range of 0.0078-4 μg/ml. The MIC was read at 4 days post inoculation and defined as the lowest concentration of an agent to inhibit 80% of fungal growth as compared to the growth control (Table 2).

[2] = tested on: C. albicans; test: MIC, CLSI M27-A2; type: cell-based, Candida albicans
Method: as §1
(§3) The remaining essential oils were prepared in a dilution range of 0.03-16 μg/ml. For Candida the MIC was read at 24 hours and defined as the lowest concentration to inhibit 50% of fungal growth as compared to the growth control (Table 4).

[3] = tested on: E. floccosum; test: MIC, modified CLSI M38A broth dilution; type: cell-based, Epidermophyton floccosum
Method: as §1, §2

[4] = tested on: S. aureus; test: MIC, CLSI M7-A7, Mueller-Hinton; type: cell-based, Staphylococcus aureus
Method: as §1
(§4) For bacterial species, the medium used to evaluate the antibacterial activity of agents and essential oils was Mueller-Hinton (Oxoid Ltd., Basingstoke, Hampshire, England). Serial dilutions of miconazole, terbinafine, and tolnaftate were prepared in a range of 0.125-64 μg/ml and serial dilutions of tea tree oil were prepared in a range of 0.0078-4 μg/ml, while those for the rest of the essential oils were prepared in a range 0.031-16 μg/ml.

[5] = tested on: S. epidermidis; test: MIC, CLSI M7-A7, Mueller-Hinton; type: cell-based; conditions: for MIC: read-out: MIC
Method: as §1, §4

[6] = tested on: C. parapsilosis; test: MIC, CLSI M27-A2; type: cell-based, Candida parapsilosis
Method: as §1, §3

[7] = tested on: All dermatophytes; test: MIC, modified CLSI M38A, pooled dermatophytes; type: cell-based, E. floccosum, T. rubrum, T. mentagrophytes
Method: as §1, §2
(§5) In the following Tables, MIC50 and MIC90 are defined as the minimal concentrations of a compound that can inhibit 50% and 90% of the tested organisms, respectively.

[8] = tested on: T. rubrum; test: Minimum fungicidal concentration (Canton et al.); type: cell-based, Trichophyton rubrum; conditions: for MFC: Trichophyton rubrum
Method: Minimum fungicidal concentration (MFC): The minimum fungicidal concentrations of various agents were determined using the technique described by Canton et al. (Antimicrob Agents Chemother. 2004 8:2477-82). In that method, fungal conidia were collected following growth on potato dextrose agar (PDA) plates and were used to inoculate 96-well plates containing different concentrations of agents. Following incubation at 35° C. for 4 days (for dermatophytes) or 24 hours (for yeast), wells showing no visible growth were cultured to determine the MFC (defined as the lowest concentration of a given agent that kills>99.999% of fungal conidia or spores). The MFC value represents the level of the agent at which spores or conidia were killed.

[9] = tested on: All bacteria (Staphylococcus species); test: MIC, CLSI M7-A7, pooled bacteria; type: cell-based, S. aureus, S. epidermidis
Method: as §1, §4, §5

[10] = tested on: T. rubrum; test: MIC, modified CLSI M38A broth dilution; type: cell-based, Trichophyton rubrum
Method: as §1, §2

[11] = tested on: All yeasts; test: MIC, CLSI M27-A2, pooled yeasts; type: cell-based, C. albicans, C. parapsilosis; conditions: n = 12
Method: as §1, §3, §5

[12] = Trichophyton mentagrophytes, T. mentagrophytes, n = 6
[13] = Candida albicans, C. albicans, n = 6
[14] = Epidermophyton floccosum, E. floccosum, n = 6
[15] = Staphylococcus aureus, S. aureus
[16] = Staphylococcus epidermidis, S. epidermidis, n = 6
[17] = Lodderomyces parapsilosis, C. parapsilosis, n = 6
[18] = Trichophyton rubrum, T. rubrum, n = 6

CN(C/C=C/C#CC(C)(C)C)Cc1cccc2ccccc12 [Terbinafine, terbinafine]
MIC Range ([1]; T. mentagrophytes, n = 6): 4 to 30 ng/mL
MIC ([1]; Trichophyton mentagrophytes, T. mentagrophytes strain 1720): 0.004 µg/mL (≈ 0.0137 µM)
MIC ([1]; Trichophyton mentagrophytes, T. mentagrophytes strain 2124): 0.03 µg/mL (≈ 0.103 µM)
MIC ([1]; Trichophyton mentagrophytes, T. mentagrophytes strain 2125): 0.03 µg/mL (≈ 0.103 µM)
MIC ([1]; Trichophyton mentagrophytes, T. mentagrophytes strain 2126): 0.004 µg/mL (≈ 0.0137 µM)
MIC ([1]; Trichophyton mentagrophytes, T. mentagrophytes strain 2127): 0.03 µg/mL (≈ 0.103 µM)
MIC ([1]; Trichophyton mentagrophytes, T. mentagrophytes strain 2128): 0.03 µg/mL (≈ 0.103 µM)
MIC50 [1, 12]: 0.03 µg/mL (≈ 0.103 µM)
MIC90 [1, 12]: 0.03 µg/mL (≈ 0.103 µM)
MIC ([2]; C. albicans strain 8280 (multi-resistant)): >64 µg/mL
MIC ([2]; Candida albicans, 24 h, C. albicans strain 1740, 50% inhibition, 24 hours, read-out: MIC): 1 µg/mL (≈ 3.43 µM)
MIC ([2]; Candida albicans, C. albicans strain 2108, read-out: MIC): 0.5 µg/mL (≈ 1.72 µM)
MIC ([2]; Candida albicans, C. albicans strain 2153, read-out: MIC): 0.5 µg/mL (≈ 1.72 µM)
MIC ([2]; Candida albicans, C. albicans strain 8280 (multi-resistant), read-out: MIC): ≥ 64 µg/mL
MIC ([2]; Candida albicans, C. albicans strain 8283, read-out: MIC): 0.5 µg/mL (≈ 1.72 µM)
MIC ([2]; Candida albicans, C. albicans strain 8364, read-out: MIC): 2 µg/mL (≈ 6.86 µM)
MIC ([2]; Candida albicans, C. albicans, 5 strains, read-out: MIC values): 0.5 to 2 µg/mL (≈ 1.72 to 6.86 µM)
MIC50 [2, 13]: 0.5 µg/mL (≈ 1.72 µM)
MIC90 [2, 13]: 2 µg/mL (≈ 6.86 µM)
MIC Range ([3]; E. floccosum, n = 6): 0.03 to 0.06 µg/mL
MIC ([3]; Epidermophyton floccosum, E. floccosum strain 1666): 0.06 µg/mL (≈ 0.206 µM)
MIC ([3]; Epidermophyton floccosum, E. floccosum strain 1798): 0.03 µg/mL (≈ 0.103 µM)
MIC ([3]; Epidermophyton floccosum, E. floccosum strain 1925): 0.03 µg/mL (≈ 0.103 µM)
MIC ([3]; Epidermophyton floccosum, E. floccosum strain 1926): 0.06 µg/mL (≈ 0.206 µM)
MIC ([3]; Epidermophyton floccosum, E. floccosum strain 1961): 0.06 µg/mL (≈ 0.206 µM)
MIC ([3]; Epidermophyton floccosum, E. floccosum strain 2165): 0.06 µg/mL (≈ 0.206 µM)
MIC50 [3, 14]: 0.06 µg/mL (≈ 0.206 µM)
MIC90 [3, 14]: 0.06 µg/mL (≈ 0.206 µM)
MIC ([4]; S. aureus strain 733): >64 µg/mL
MIC ([4]; S. aureus strain 734): >64 µg/mL
MIC ([4]; S. aureus strain 8470): >64 µg/mL
MIC Range ([4]; S. aureus, n = 6): >64 µg/mL
MIC50 [4, 15]: > 64 µg/mL
MIC90 [4, 15]: > 64 µg/mL
MIC ([4]; Staphylococcus aureus, S. aureus strain 730, 80% inhibition, 16 h, read-out: MIC): > 64 µg/mL
MIC ([4]; Staphylococcus aureus, S. aureus strain 732, read-out: MIC): > 64 µg/mL
MIC Range ([5]; S. epidermidis, n = 6): >64 µg/mL
MIC ([5]; Staphylococcus epidermidis, S. epidermidis strain 8472): > 64 µg/mL
MIC ([5]; Staphylococcus epidermidis, S. epidermidis strain 8473): > 64 µg/mL
MIC ([5]; Staphylococcus epidermidis, S. epidermidis strain 8474): > 64 µg/mL
MIC ([5]; Staphylococcus epidermidis, S. epidermidis strain 8475): > 64 µg/mL
MIC ([5]; Staphylococcus epidermidis, S. epidermidis strain 8476): > 64 µg/mL
MIC ([5]; Staphylococcus epidermidis, S. epidermidis strain 8477): > 64 µg/mL
MIC50 [5, 16]: > 64 µg/mL
MIC90 [5, 16]: > 64 µg/mL
MIC Range ([6]; C. parapsilosis, n = 6): 0.25-0.25 μg/mL
MIC Range ([6]; C. parapsilosis, n = 6, listed as terbinafine): 0.25 µg/mL (≈ 0.858 µM)
MIC ([6]; Lodderomyces parapsilosis, C. parapsilosis strain 7629): 0.25 µg/mL (≈ 0.858 µM)
MIC ([6]; Lodderomyces parapsilosis, C. parapsilosis strain 7668): 0.25 µg/mL (≈ 0.858 µM)
MIC ([6]; Lodderomyces parapsilosis, C. parapsilosis strain 7672): 0.25 µg/mL (≈ 0.858 µM)
MIC ([6]; Lodderomyces parapsilosis, C. parapsilosis strain 7995): 0.25 µg/mL (≈ 0.858 µM)
MIC ([6]; Lodderomyces parapsilosis, C. parapsilosis strain 8148): 0.25 µg/mL (≈ 0.858 µM)
MIC ([6]; Lodderomyces parapsilosis, C. parapsilosis strain 8442): 0.25 µg/mL (≈ 0.858 µM)
MIC50 [6, 17]: 0.25 µg/mL (≈ 0.858 µM)
MIC90 [6, 17]: 0.25 µg/mL (≈ 0.858 µM)
MIC50 ([7]; n = 18): 0.03 µg/mL (≈ 0.103 µM)
MIC90 ([7]; n = 18): 0.06 µg/mL (≈ 0.206 µM)
MIC Range ([7]; n = 18): 15 ng/mL and 8 to 15 ng/mL
MIC Range ([7]; n = 18, listed as terbinafine): 8 to 60 ng/mL
MFC range (row MIC Range) ([8]; T. rubrum, n = 6): 0.03 to 0.125 µg/mL
MFC ([8]; T. rubrum strain 1967, read-out: MFC): 0.125 µg/mL (≈ 0.429 µM)
MFC ([8]; T. rubrum strain 2098, read-out: MFC): 0.06 µg/mL (≈ 0.206 µM)
MFC ([8]; T. rubrum strain 2246, read-out: MFC): 0.06 µg/mL (≈ 0.206 µM)
MFC ([8]; T. rubrum strain 8063, read-out: MFC): 0.06 µg/mL (≈ 0.206 µM)
MFC ([8]; T. rubrum strain 8071, read-out: MFC): 0.06 µg/mL (≈ 0.206 µM)
MFC ([8]; T. rubrum strain 8092, read-out: MFC): 0.03 µg/mL (≈ 0.103 µM)
MFC ([8]; T. rubrum, n = 6, read-out: MFC, row MIC50): 0.06 µg/mL (≈ 0.206 µM)
MFC ([8]; T. rubrum, n = 6, read-out: MFC, row MIC90): 0.125 µg/mL (≈ 0.429 µM)
MIC50 ([9]; Staphylococcus, n = 12): > 64 µg/mL
MIC90 ([9]; Staphylococcus, n = 12): > 64 µg/mL
MIC Range ([9]; n = 12): >64 µg/mL
MIC Range ([9]; n = 12, listed as TERBINAFINE): >64 µg/mL
MIC Range ([9]; n = 12, listed as terbinafine): > 64 µg/mL
MIC Range ([10]; T. rubrum, n = 6): 8 to 15 ng/mL
MIC ([10]; Trichophyton rubrum, T. rubrum strain 1967): 0.015 µg/mL (≈ 0.0515 µM)
MIC ([10]; Trichophyton rubrum, T. rubrum strain 2098): 0.015 µg/mL (≈ 0.0515 µM)
MIC ([10]; Trichophyton rubrum, T. rubrum strain 2246): 0.008 µg/mL (≈ 0.0275 µM)
MIC ([10]; Trichophyton rubrum, T. rubrum strain 8063): 0.015 µg/mL (≈ 0.0515 µM)
MIC ([10]; Trichophyton rubrum, T. rubrum strain 8071): 0.015 µg/mL (≈ 0.0515 µM)
MIC ([10]; Trichophyton rubrum, T. rubrum strain 8092): 0.015 µg/mL (≈ 0.0515 µM)
MIC50 [10, 18]: 0.015 µg/mL (≈ 0.0515 µM)
MIC90 [10, 18]: 0.015 µg/mL (≈ 0.0515 µM)
MIC50 [11]: 0.25 µg/mL (≈ 0.858 µM)
MIC90 [11]: 2 µg/mL (≈ 6.86 µM)
